Assay results taken from patent US11000586B2, “Adjuvant composition, vaccine composition containing the same, and method for producing both of them” (TERUMO KABUSHIKI KAISHA, priority 2013, dated 2021).

Experiments:
[1] = tested on: IFNγ-secreting cells in the spleen; assay: ELIspot method (IFNγ spots) after immunization of mice; assay type: in vivo, C57BL/6N mice; conditions: antigen OVA peptide; DLPC, deoxycholic acid (160 nmol), MPL content 0.227; 2×10^6 cells/well; FIG. 2
Method: (§1) Administration (100 μL/head) was performed by subcutaneous injection at one position on the back under anesthesia. The dose of the amphipathic substance was 100 nmol/head; the dose of the pH-sensitive compound was 10 to 640 nmol/head; MPL content was 0.0227 to 22.7 nmol/head; and the amount of the antigen was 3.2 to 400 μg/head. For evaluation of cell-mediated immunity, administration was performed once and the assay was performed seven days after administration. For evaluation of humoral immunity, administration was performed twice. The second administration was performed 14 days after the first administration, and assay was performed seven days after the second administration.
The mice were sacrificed on the seventh day after the last administration and had its spleen harvested. […] The number of cells was counted. […]
The ELIspot method was practiced by using the Mouse IFNγ ELISPOT Set. One day before cell inoculation, the 96-well ELIspot plate was allowed to adsorb the detection antibody attached to the kit, so that the plate was made ready for use. […]
Samples used for comparison include a solution of the peptide alone, a dispersion of the pH-sensitive carrier (DLPC-deoxycholic acid) and the peptide, and a solution of incomplete Freund's adjuvant (IFA) and peptide. […] The number of IFNγ-secreting cells in the spleen was counted, and the CTL induction was evaluated.

[2] = tested on: CTL (IFNγ-secreting cells/total CD8 positive cells); assay: Evaluation of CTL induction rate, ICS method, after immunization of mice; assay type: in vivo, C57BL/6N mice; conditions: antigen peptide (80 μg); MPL content 0.227 or equivalent; DLPC, deoxycholic acid (160 nmol); subcutaneous once; FIGS. 3 and 4
Method: as §1, with “The dose of the amphipathic substance was 100 nmol/head; the dose of the pH-sensitive compound was 10 to 640 nmol/head; MPL content was 0.0227 to 22.7 nmol/head; and the amount of the antigen was 3.2 to 400 μg/head.” left out
The mice were sacrificed on the seventh day after the last administration and had its spleen harvested. The spleen was given RPMI medium (3.0 mL) containing 10% serum and then treated by the BD Falcon cell strainer. Thus there was obtained a suspension of cells. […] The cells were dispersed into RPMI medium containing 10% serum. The number of cells was counted. Thus there was obtained a dispersion of spleen cells.
For restimulation of the antigen, 10% serum-containing RPMI medium (100 μL) containing OVA peptide (40 μg/mL) was added, followed by incubation for three hours. Then, BD GolgiPlug was added such that its concentration was 0.2 μL/100 μL. Cell culture was performed overnight. In the case where the restimulation was not given, a 10% serum-containing RPMI medium not containing OVA peptide was used.
After washing, the cells were stained with Anti-CD8aPE (at 4° C. for 30 minutes), followed by washing again. Then the cells were permeabilized with Cytofix/Cytoperm. After washing, the cells were stained with Anti-IFNγFITC (at 4° C. for 30 minutes). […] CTL induction rate was calculated in terms of the ratio between the IFNγ secreting cells and the total CD8 positive cells.
It is known that MPL activates innate immune system and functions as an adjuvant even when used alone. It is also known that MPL induces cell-mediated immunity. Thus, a comparison was made as to the induction of cell-mediated immunity between MPL used alone and MPL used in combination with a pH-sensitive carrier in the form of the adjuvant composition. Each of the MPL and the adjuvant composition is administered together with an antigen. […] The above-mentioned solution or dispersion was subcutaneously administered once to the back of C57BL/6N mice, and the CTL induction rate was obtained according to the ICS method. The CTL induction rate is expressed in terms of the ratio of the IFNγ-secreting cells to the total CD8 positive cells in a specific area which is hardly affected by dead cells (IFNγ-secreting cells/total CD8 positive cells).

CD80 = assay: Evaluation of stimulus to activate innate immune system: expression of CD80 in cultured mice spleen cells (flow cytometry); conditions: solution (5 μL) of sample added alone: peptide, OVA 800 μg/mL, DLPC 1000 nmol/mL, deoxycholic acid 1600 nmol/mL; FIG. 8(B)
Method: The evaluation of stimulus to activate innate immune system was performed as follows.
A spleen was harvested from C57BL/6N mice. The harvested spleen was injected with 500 μL of collagenase solution, 2 mg/mL (prepared with RPMI medium) followed by incubation at 37° C. for 30 minutes. The spleen was made into cell suspension by treatment with BD Falcon cell strainer. The cells underwent hemolysis with RBC lysis buffer, followed by washing with RPMI medium. The cells were dispersed into RPMI medium, and the number of cells was counted. The cells were used for the subsequent procedure.
The cells were inoculated into a 96-well dish such that 1.0×10^6 cells/100 μL. The cell dispersion was given 100 μL of RPMI medium containing a dispersion of different kind, followed by incubation overnight. These procedures were performed by using serum-free RPMI medium.
The cells were recovered and washed with BD stain buffer. Then, the cells underwent incubation together with Anti-CD11cFITC, 0.25 μg/100 μL (4° C. for 30 minutes), so that the cells were stained. After washing, the cells underwent again incubation with Anti-CD80PE, Anti-CD86PE, or Anti-CD40PE, 0.25 μg/100 μL (4° C. for 30 minutes), so that the cells were stained. After washing at least more than three times, the cells were evaluated by using the flow cytometer (Cytomics FC500, Software: CXP software ver. 2).

SIINFEKL [peptide alone]
number of IFNγ spots compared with untreated sample [1]: equivalent number of spots as the untreated sample
CTL induction rate [2]: 0.14%
fluorescence intensity of CD80PE compared with PBS (CD80): remained unchanged from that in the case where PBS was added
